Positions of bridges follow the written chain, without caps; N, C: chain ends. Non-standard residues stand in square brackets, D forms with d. Residues, ends and D or L forms follow the SMILES beside them. Trp(1-Me) = Cn1cc(C[C@H](N)C(=O)O)c2ccccc21; Sar = CNCC(=O)O
Tests used:
[1] = tested on: classical complement pathway; assay: In vitro haemolysis assay (inhibition of classical complement pathway); type: cell-based, human; conditions: human serum, sensitized sheep red blood cells; Table 3, given as upper bounds; read-out: IC50, inhibition of hemolysis
Outline: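 Compound dilutions preincubated 15 min at room temperature with diluted human serum (titrated per batch for 70-90% maximal haemolysis), then antibody-sensitized sheep RBC (10^7/well) added for 30 min at 37 °C in Tris/casein buffer, pH 7.4. Stopped with EDTA; haemolysis read at 405 nm; IC50 by 4PL fit.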

[2] = Solubility test at 10 mg/mL (visual inspection and light scattering); type: physicochemical; conditions: for Solubility, Condition 1: Acetate pH 4; for Solubility, Condition 2: Acetate pH 5; for Solubility, Condition 3: Phosphate pH 6; for Solubility, Condition 4: Phosphate pH 7; for Solubility, Condition 5: Phosphate pH 7.5

SMILES | IC50 [1] [nM] | Solubility, Condition 1 [2] | Solubility, Condition 2 [2] | Solubility, Condition 3 [2] | Solubility, Condition 4 [2] | Solubility, Condition 5 [2]
CC[C@H](C)[C@@H]1NC(=O)[C@@H](NC(=O)[C@H](Cc2ccccc2)NC(=O)[C@H](CCC(=O)O)NC(=O)[C@H](CO)NC(C)=O)CSSC[C@@H](C(=O)N(C)CC(=O)N[C@@H](CCC(=O)O)C(N)=O)NC(=O)[C@H](CCCNC(=N)N)NC(=O)[C@H](Cc2c[nH]cn2)NC(=O)[C@H](CCC(=O)O)NC(=O)CN(C)C(=O)[C@H](Cc2c[nH]c3ccccc23)NC(=O)[C@H](CC(=O)O)NC(=O)[C@H](CCC(N)=O)NC(=O)[C@H](Cc2cn(C)c3ccccc23)NC1=O [Compound 79, Ac-SEFC(1)I[1-Me-Trp]QDW[Sar]EHRC(1)[Sar]E-NH2] (Ac-SEFCI[Trp(1-Me)]QDW[Sar]EHRC[Sar]E-NH2; disulfide 4-14) | < 100 | − (“−” denotes lack of solubility at the given condition, as UV absorbance at 340 nm exceeds 0.1 AU and/or it is visibly turbid or contains particles) | − (“−” denotes lack of solubility at the given condition, as UV absorbance at 340 nm exceeds 0.1 AU and/or it is visibly turbid or contains particles) | + (“+” denotes solubility at the given condition, as determined by UV absorbance being less than 0.1 AU at 340 nm and the sample being clear when manually inspected) | + (“+” denotes solubility at the given condition, as determined by UV absorbance being less than 0.1 AU at 340 nm and the sample being clear when manually inspected) | + (“+” denotes solubility at the given condition, as determined by UV absorbance being less than 0.1 AU at 340 nm and the sample being clear when manually inspected)
CC[C@H](C)[C@@H]1NC(=O)[C@@H](NC(=O)[C@H](Cc2ccccc2)NC(=O)[C@H](CCC(=O)O)NC(C)=O)CSSC[C@@H](C(=O)N(C)CC(=O)N[C@@H](CCC(=O)O)C(=O)N[C@@H](C)C(N)=O)NC(=O)[C@H](CCCNC(=N)N)NC(=O)[C@H](Cc2c[nH]cn2)NC(=O)[C@H](CCC(=O)O)NC(=O)CNC(=O)[C@H](Cc2c[nH]c3ccccc23)NC(=O)[C@H](CC(=O)O)NC(=O)[C@H](CCC(N)=O)NC(=O)[C@H](Cc2cn(C)c3ccccc23)NC1=O [Compound 80] (Ac-EFCI[Trp(1-Me)]QDWGEHRC[Sar]EA-NH2; disulfide 3-13) | < 100 | − (“−” denotes lack of solubility at the given condition, as UV absorbance at 340 nm exceeds 0.1 AU and/or it is visibly turbid or contains particles) | − (“−” denotes lack of solubility at the given condition, as UV absorbance at 340 nm exceeds 0.1 AU and/or it is visibly turbid or contains particles) | + (“+” denotes solubility at the given condition, as determined by UV absorbance being less than 0.1 AU at 340 nm and the sample being clear when manually inspected) | + (“+” denotes solubility at the given condition, as determined by UV absorbance being less than 0.1 AU at 340 nm and the sample being clear when manually inspected) | + (“+” denotes solubility at the given condition, as determined by UV absorbance being less than 0.1 AU at 340 nm and the sample being clear when manually inspected)
